Reference: ChEMBL document CHEMBL1201862, “PubChem BioAssay data set” (2004)
One block for each molecule: values may come before it. Calls of active or inactive are those of the source.

Assays:
[1] = target: T1, Rac GTPase-activating protein 1 (Homo sapiens, UniProt Q9H0H5); assay: MgcRacGAP GTPase-activating activity inhibitors, confirmation, biochemical, ADP Hunter fluorescence, primary and confirmatory (AID 624330); assay type: functional
T1 sequence (Q9H0H5 whole entry): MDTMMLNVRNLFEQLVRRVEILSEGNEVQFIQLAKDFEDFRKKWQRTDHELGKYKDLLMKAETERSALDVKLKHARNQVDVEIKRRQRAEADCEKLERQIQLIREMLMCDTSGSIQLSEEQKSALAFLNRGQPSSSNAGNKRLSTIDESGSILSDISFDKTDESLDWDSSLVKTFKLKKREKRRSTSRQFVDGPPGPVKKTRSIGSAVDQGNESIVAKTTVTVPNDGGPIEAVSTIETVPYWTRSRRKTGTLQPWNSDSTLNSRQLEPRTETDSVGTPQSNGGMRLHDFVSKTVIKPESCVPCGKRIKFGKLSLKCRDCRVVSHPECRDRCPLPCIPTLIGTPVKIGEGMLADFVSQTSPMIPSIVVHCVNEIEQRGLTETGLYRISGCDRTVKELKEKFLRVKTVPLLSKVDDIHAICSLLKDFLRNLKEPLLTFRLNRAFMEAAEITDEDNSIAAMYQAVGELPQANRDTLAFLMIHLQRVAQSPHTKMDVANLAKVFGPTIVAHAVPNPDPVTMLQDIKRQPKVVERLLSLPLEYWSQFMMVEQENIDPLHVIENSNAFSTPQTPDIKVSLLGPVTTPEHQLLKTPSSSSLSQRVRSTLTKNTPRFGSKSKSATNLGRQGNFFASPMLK

[2] = target: Multidrug resistance protein CDR1 (Candida albicans, UniProt P43071); assay: CaCDR1 efflux pump inhibitors in yeast, dose response, S. cerevisiae AD1-8u, singleplex, Cherry Pick1 hits (AID 588606); assay type: functional
[3] = tested on: Streptococcus; assay: Group A Streptococcus viability loss, dose response, counter-screen for streptokinase expression inhibitor project, luminescence, BacTiterGlo (AID 1915); assay type: functional, organism-based;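 also: potency for reduction of bacterial viability or growth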
[4] = Shn3 3'UTR reporter inhibitors, dose response, cell-based, Clone20 osteoblasts, firefly luciferase, cherry-picked (AID 624132); assay type: functional;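 also: firefly luciferase luminescence from reporter carrying the Shn3 3'UTR in osteoblasts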
[5] = target: Sphingosine 1-phosphate receptor 1 (Homo sapiens, UniProt P21453); assay type: functional;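 also: Tango beta-arrestin reporter U2OS cells stimulated with S1P near its EC80; inhibitor potency meaning antagonism of receptor activation by the natural agonist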
[6] = cytotoxicity toward DRD oncogenic fibroblasts, dose response, cell-based, non-viral oncogenic, luminescence (AID 1934); assay type: functional; conditions: Homo sapiens
[7] = target: Intestinal-type alkaline phosphatase (Homo sapiens, UniProt P09923); assay: human intestinal alkaline phosphatase activators, dose response, biochemical, luminescence, uHTS hits (AID 463120); assay type: functional
[8] = target: Serine/threonine-protein kinase pim-3 (Homo sapiens, UniProt Q86V86); assay type: functional;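 also: value obtained as one member of a broad kinase panel profiling effort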
[9] = target: Macrophage colony-stimulating factor 1 receptor (Homo sapiens, UniProt P07333); assay type: functional;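 also: value comes from the Navigating the Kinome screening panel, CSF1R member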
[10] = target: Protein-tyrosine kinase 2-beta (Homo sapiens, UniProt Q14289); assay type: functional
[11] = target: Tyrosine-protein kinase ITK/TSK (Homo sapiens, UniProt Q08881); assay type: functional;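 also: affinity for ITK measured as one member of a broad kinase panel profiling binding across the kinome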
[12] = target: Serine/threonine-protein kinase 17A (Homo sapiens, UniProt Q9UEE5); assay type: functional
[13] = target: Mitogen-activated protein kinase 12 (Homo sapiens, UniProt P53778); assay type: functional;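 also: measured as one member of a kinome-wide kinase profiling panel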
[14] = target: Casein kinase II subunit alpha (Homo sapiens, UniProt P68400); assay type: functional
[15] = target: Platelet-derived growth factor receptor alpha (Homo sapiens, UniProt P16234); assay: Navigating the Kinome. Panel member name: PDGFRA; assay type: functional
[16] = target: cGMP-dependent protein kinase 1 (Homo sapiens, UniProt Q13976); assay type: functional;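 also: value from a kinome panel screen with PRKG1 as the panel member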
[17] = target: Mitogen-activated protein kinase 8 (Homo sapiens, UniProt P45983); assay type: functional;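 also: value comes from one member of a kinome-wide kinase profiling panel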
[18] = target: Serine/threonine-protein kinase Chk2 (Homo sapiens, UniProt O96017); assay type: functional;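 also: CHEK2 entry within a kinome-wide screening panel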
[19] = target: Mitogen-activated protein kinase kinase kinase kinase 2 (Homo sapiens, UniProt Q12851); assay type: functional;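 also: measured as one member of a kinome-wide kinase panel, with MAP4K2 as the panel entry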
[20] = target: Cyclin-dependent kinase 5 (Homo sapiens, UniProt Q00535); assay type: functional;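 also: CDK5 measured as one member of a kinase profiling panel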
[21] = target: Receptor tyrosine-protein kinase erbB-2 (Homo sapiens, UniProt P04626); assay: Navigating the Kinome. Panel member name: ERBB2; assay type: functional
[22] = target: Insulin-like growth factor 1 receptor (Homo sapiens, UniProt P08069); assay: Navigating the Kinome. Panel member name: IGF1R; assay type: functional
[23] = target: 3-phosphoinositide-dependent protein kinase 1 (Homo sapiens, UniProt O15530); assay type: functional;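 also: value comes from the Navigating the Kinome panel, PDPK1 member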
[24] = target: MAP/microtubule affinity-regulating kinase 3 (Homo sapiens, UniProt P27448); assay type: functional;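 also: MARK3 affinity measured as one member of a kinome panel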
[25] = target: Non-receptor tyrosine-protein kinase TYK2 (Homo sapiens, UniProt P29597); assay type: functional
[26] = target: Insulin receptor (Homo sapiens, UniProt P06213); assay type: functional;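 also: insulin receptor kinase tested as one member of a kinome-wide kinase panel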
[27] = target: ORF 73 (Human herpesvirus 8, UniProt O40947); assay: inhibitors of C-LANA binding to LBS DNA, dose response, biochemical, fluorescence polarization, cherry-picked samples (AID 504725); parameters: species or system Human gammaherpesvirus 8;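 also: fluorescence polarization of a labeled DNA duplex reporting LANA DNA binding; potency is for inhibitors that block LANA binding to the DNA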

Chain of Sphingosine 1-phosphate receptor 1 (P21453 whole entry): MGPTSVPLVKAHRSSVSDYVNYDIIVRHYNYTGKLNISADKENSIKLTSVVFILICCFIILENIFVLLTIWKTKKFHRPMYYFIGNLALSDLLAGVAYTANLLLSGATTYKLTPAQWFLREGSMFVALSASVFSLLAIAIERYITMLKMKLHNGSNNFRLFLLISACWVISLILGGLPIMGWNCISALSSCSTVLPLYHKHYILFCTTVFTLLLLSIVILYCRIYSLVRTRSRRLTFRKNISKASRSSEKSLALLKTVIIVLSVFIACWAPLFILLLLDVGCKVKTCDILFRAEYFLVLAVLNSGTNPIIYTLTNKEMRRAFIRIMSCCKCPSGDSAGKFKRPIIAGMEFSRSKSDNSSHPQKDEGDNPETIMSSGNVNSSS
Chain of Macrophage colony-stimulating factor 1 receptor (P07333 whole entry): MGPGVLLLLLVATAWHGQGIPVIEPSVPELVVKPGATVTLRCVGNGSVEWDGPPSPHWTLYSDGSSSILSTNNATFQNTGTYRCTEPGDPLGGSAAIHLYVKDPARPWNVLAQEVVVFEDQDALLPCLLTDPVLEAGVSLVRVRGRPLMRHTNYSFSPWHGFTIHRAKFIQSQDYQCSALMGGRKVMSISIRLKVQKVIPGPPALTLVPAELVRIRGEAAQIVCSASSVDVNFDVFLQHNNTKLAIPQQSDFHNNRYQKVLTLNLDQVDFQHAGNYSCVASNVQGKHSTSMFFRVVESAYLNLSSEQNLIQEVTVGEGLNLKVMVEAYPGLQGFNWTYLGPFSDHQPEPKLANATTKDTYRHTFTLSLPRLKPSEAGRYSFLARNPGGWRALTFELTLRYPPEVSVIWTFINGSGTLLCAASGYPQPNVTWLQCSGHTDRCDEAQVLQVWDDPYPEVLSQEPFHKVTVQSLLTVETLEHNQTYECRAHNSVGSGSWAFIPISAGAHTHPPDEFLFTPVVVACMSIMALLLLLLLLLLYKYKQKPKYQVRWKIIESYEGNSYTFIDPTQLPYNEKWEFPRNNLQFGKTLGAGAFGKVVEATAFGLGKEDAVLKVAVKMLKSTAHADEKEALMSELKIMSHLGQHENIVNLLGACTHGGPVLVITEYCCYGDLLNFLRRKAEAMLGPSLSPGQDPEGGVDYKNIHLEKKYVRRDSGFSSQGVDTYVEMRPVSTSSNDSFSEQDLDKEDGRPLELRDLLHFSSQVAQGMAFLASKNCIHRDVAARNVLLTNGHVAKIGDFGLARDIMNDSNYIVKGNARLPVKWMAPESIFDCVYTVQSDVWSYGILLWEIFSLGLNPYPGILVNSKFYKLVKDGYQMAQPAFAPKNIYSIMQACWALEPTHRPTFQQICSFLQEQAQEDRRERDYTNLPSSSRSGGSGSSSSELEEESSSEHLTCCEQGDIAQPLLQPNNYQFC
Chain of Mitogen-activated protein kinase kinase kinase kinase 2 (Q12851 whole entry): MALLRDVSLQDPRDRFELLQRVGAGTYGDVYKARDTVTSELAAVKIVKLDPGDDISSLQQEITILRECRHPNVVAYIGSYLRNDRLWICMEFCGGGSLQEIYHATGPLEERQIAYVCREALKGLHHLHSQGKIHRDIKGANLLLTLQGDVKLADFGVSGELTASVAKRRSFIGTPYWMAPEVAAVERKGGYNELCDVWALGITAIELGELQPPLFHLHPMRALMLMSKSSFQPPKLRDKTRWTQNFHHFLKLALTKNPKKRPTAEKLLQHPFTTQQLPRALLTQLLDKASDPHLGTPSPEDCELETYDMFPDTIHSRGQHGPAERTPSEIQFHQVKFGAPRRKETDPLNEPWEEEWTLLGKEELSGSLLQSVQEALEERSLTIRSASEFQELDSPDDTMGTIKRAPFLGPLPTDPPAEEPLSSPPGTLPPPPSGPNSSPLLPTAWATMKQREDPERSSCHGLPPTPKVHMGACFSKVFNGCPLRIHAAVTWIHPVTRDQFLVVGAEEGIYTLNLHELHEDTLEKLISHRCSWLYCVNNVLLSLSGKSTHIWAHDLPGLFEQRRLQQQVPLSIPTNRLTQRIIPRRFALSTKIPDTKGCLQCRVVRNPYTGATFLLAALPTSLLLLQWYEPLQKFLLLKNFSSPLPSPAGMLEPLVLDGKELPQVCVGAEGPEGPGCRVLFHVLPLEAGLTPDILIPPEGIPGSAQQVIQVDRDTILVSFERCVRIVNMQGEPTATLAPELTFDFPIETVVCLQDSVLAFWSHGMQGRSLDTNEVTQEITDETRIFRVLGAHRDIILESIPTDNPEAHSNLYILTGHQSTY
Chain of Cyclin-dependent kinase 5 (Q00535 whole entry): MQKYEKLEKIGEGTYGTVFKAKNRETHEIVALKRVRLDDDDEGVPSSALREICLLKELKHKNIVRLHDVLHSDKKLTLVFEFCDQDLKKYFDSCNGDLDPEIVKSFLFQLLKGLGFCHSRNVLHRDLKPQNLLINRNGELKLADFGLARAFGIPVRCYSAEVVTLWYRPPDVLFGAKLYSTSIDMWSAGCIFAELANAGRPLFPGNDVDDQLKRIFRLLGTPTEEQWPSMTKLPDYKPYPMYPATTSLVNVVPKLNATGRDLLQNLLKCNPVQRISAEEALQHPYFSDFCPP
Chain of Non-receptor tyrosine-protein kinase TYK2 (P29597 whole entry): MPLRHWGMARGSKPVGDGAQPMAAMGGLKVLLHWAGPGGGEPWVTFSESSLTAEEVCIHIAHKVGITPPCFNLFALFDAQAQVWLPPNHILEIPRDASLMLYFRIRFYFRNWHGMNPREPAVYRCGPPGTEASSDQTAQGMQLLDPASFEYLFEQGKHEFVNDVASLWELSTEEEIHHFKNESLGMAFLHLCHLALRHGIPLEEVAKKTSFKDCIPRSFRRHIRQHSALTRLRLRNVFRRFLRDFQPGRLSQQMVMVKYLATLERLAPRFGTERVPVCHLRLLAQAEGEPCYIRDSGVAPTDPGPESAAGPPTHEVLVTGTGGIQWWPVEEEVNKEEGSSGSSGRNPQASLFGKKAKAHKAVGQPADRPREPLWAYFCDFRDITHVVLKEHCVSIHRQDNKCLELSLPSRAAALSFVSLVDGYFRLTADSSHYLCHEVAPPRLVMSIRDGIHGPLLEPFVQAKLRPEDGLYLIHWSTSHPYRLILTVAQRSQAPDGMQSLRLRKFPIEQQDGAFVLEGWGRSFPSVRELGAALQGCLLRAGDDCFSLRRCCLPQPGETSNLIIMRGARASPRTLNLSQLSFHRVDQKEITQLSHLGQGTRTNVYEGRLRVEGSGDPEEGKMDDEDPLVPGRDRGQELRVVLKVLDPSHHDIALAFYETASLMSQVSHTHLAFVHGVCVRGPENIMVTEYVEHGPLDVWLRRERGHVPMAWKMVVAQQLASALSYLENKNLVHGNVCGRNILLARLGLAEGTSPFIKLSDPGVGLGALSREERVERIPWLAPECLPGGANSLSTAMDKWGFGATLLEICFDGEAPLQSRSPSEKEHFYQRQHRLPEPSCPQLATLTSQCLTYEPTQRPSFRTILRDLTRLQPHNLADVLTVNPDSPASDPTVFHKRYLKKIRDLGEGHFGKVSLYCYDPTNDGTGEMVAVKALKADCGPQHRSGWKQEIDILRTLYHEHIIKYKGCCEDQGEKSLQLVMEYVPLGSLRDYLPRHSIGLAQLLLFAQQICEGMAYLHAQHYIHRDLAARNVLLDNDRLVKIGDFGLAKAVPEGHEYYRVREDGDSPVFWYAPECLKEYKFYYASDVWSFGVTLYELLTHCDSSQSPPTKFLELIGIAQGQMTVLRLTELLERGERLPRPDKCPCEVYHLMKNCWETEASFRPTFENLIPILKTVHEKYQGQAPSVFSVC
Chain of Mitogen-activated protein kinase 8 (P45983 whole entry): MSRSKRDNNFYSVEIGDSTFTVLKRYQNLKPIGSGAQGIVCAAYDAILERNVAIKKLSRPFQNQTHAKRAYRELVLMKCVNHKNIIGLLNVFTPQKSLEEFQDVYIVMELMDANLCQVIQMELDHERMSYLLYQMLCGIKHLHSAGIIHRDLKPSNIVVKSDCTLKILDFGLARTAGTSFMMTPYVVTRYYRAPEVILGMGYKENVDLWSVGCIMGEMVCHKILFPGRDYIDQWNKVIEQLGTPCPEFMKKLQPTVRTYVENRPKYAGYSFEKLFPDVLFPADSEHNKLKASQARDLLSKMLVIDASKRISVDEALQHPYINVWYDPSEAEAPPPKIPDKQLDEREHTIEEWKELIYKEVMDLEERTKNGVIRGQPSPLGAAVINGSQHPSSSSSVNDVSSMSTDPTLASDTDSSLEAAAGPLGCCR
Chain of Tyrosine-protein kinase ITK/TSK (Q08881 whole entry): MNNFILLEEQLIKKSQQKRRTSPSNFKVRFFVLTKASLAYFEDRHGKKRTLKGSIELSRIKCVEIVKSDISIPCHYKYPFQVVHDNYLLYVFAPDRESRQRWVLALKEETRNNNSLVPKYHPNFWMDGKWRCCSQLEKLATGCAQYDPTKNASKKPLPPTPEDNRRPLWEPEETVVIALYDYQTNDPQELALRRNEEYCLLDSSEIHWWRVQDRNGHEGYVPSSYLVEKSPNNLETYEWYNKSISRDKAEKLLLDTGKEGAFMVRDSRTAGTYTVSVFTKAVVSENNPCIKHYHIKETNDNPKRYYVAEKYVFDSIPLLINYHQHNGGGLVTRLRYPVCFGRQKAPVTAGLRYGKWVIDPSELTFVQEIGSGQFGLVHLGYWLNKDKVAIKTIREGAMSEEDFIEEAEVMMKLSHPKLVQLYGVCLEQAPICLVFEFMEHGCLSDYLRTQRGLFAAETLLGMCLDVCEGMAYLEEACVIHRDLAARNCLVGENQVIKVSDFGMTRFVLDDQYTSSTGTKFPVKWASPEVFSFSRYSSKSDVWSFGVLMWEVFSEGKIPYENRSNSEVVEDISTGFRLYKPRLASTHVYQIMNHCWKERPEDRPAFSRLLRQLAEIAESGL

Compound: Cc1ccc2[nH]c(/C(C#N)=C/c3ccc(O)c(O)c3)nc2c1
- IC50 [1]: 22.3 µM (active)
- EC50 [2]: 13.4 µM (active)

Compound: COC(=O)C1CN(C#N)N(c2ccc(Cl)cc2)C12c1ccccc1-c1ccccc12 (stereo not drawn)
- EC50 [3]: 20.7 µM (active)
- AC50 [4]: < 0.26 µM (active)
- IC50 [5]: 5.76 µM (active)
- EC50 [6]: 3.75 µM (active)

- EC50 [7]: 9.21 µM (active)
Compound: O=C(NN1C(=O)CSC1=S)C(=O)NN1C(=O)CSC1=S

- Ki [8]: > 7.94 µM (inactive)
- Ki [9]: > 5.01 µM (inactive)
- Ki [10]: > 1.58 µM (inactive)
- Ki [11]: > 1.58 µM (inactive)
- Ki [12]: > 3.98 µM (inactive)
- Ki [13]: > 6.31 µM (inactive)
- Ki [14]: > 6.31 µM (inactive)
- Ki [15]: 6.31 µM (active)
- Ki [16]: > 2 µM (inactive)
- Ki [17]: > 25.1 µM (inactive)
- Ki [18]: > 1.58 µM (inactive)
- Ki [19]: 15.8 µM (active)
- Ki [20]: > 6.31 µM (inactive)
- Ki [21]: > 1.58 µM (inactive)
- Ki [22]: > 2 µM (inactive)
- Ki [23]: > 3.98 µM (inactive)
- Ki [24]: > 6.31 µM (inactive)
- Ki [25]: > 2 µM (inactive)
- Ki [26]: > 5.01 µM (inactive)
Compound: Nc1noc2cccc(-c3cccc(O)c3)c12

Compound: O=C1NC(=S)S/C1=C\C=C\c1ccc([N+](=O)[O-])o1
- AC50 [27]: 71.4 µM (active)
- IC50 [1]: 37.7 µM (active)
